How the values were obtained:
Format in all cases: cell-based, feline
fTAS2R38 [1] = test: Fluo-4AM calcium assay, cells transiently expressing fTAS2R38 with Gα16gust44
Description: (§1) Cell lines that transiently express a desired TAS2R disclosed herein are generated by transfecting the appropriate expression vector, e.g., pcDNA3.1D-FLAGV5His-TAS2R38, constructed as described above in Ex. 2A into cells of a eukaryotic cell line (e.g., ATCC #CRL-11268 or Life Technologies, Cat# R700-07).
(§2) On day 0, 60,000 cells per well are plated on poly lysine coated, black 96 well plates with clear bottoms (Costar). The following day the cells are transfected with 150 ng TAS2R38 expression vector, e.g., pcDNA3.1D-FLAGV5His (Invitrogen) along with 45 ng of Gα16 chimera containing the last 44 amino acids of rat gustducin (Gα16gust44) with 0.5 ul Lipofectamine 2000 (Invitrogen) per well. Cells are then incubated 22-44 hours at 37° C. 5% CO2.
(§3) The expression of fTAS2R38 is evaluated by testing for the presence of a functional response to a known hTAS2R38 ligand (e.g., PTC), determined via automated calcium imaging using a Fluo-4AM (Life Technologies Corporation) Calcium Assay. Fluo-4AM is a fluorescent indicator of intracellular calcium dynamics (change in concentration) and allows monitoring changes in the calcium concentration, particularly an increase in response to receptor activation occurring after agonist exposure.
(§4) Testing for a functional response of fTAS2R38 to the known hTAS2R38 ligands, PTC and PROP, and of fTAS2R43 to the known hTAS2R43 ligands, aloin, denatonium and saccharine), was determined via automated calcium imaging using the Fluo-4AM (Life Technologies Corporation) Calcium Assay.

fTAS2R38 [2] = test: Fluo-4AM calcium assay, stable Gα16-gustducin 44/TAS2R38 cell line
Excerpt: Fluo-4AM is a fluorescent indicator of intracellular calcium dynamics (change in concentration) and allows monitoring changes in the calcium concentration, particularly an increase in response to receptor activation occurring after agonist exposure.

fTAS2R43 = test: Fluo-4AM calcium assay, cells transiently expressing fTAS2R43 with Gα16gust44
Description: as §1, §2, §3
Generation of cell lines transiently expressing the other fTAS2Rs disclosed herein is analogous.
as §4

In the case of `CCCc1cc(=O)[nH]c(=S)[nH]1` [PROP, 6-n-propylthiouracil], the stimulation of receptor (fTAS2R38 [1]; 30 μM PROP, transient expression) is reported as “not stimulated” and the “activation of cell line” value (fTAS2R38 [2]; 30 μm PROP) is reported as “not activated”.
For `CCCN(CCC)S(=O)(=O)c1ccc(C(=O)O)cc1` [probenecid, p-(dipropylsulfamoyl)benzoic acid], the “inhibition of the response to PTC” value (fTAS2R38 [1]; 1 mM probenecid, response of fTAS2R38 to PTC) was “inhibited”, the “inhibition of the response to aloin” value (fTAS2R43; 1 mM probenecid, response of fTAS2R43 to aloin) was “inhibited” and the “inhibition of the response to denatonium” value (fTAS2R43; 1 mM probenecid, response of fTAS2R43 to denatonium) was “inhibited”.
`NC(=S)Nc1ccccc1` [PTC, phenylthiocarbamide] showed an activation over baseline (fTAS2R38 [1]; 100 μM PTC, transient expression) of 81% and an activation over baseline (fTAS2R38 [2]; 100 μM PTC) of 90%.
For `O=C1NS(=O)(=O)c2ccccc21` [saccharin], the stimulation of receptor (fTAS2R43; 6.7 mM saccharin, transient expression) was “not stimulated”.
